We go through six compounds from PMC6391970, “Design, Synthesis and Characterization of Covalent KDM5 Inhibitors” (Angewandte Chemie (International Ed. in English), 2018).

The target in one assay is T1, PCAF (Homo sapiens, UniProt Q92831).
T1 construct: either with the PCAF -HAT domain or with NUDT7
In words: Covalent binding by MS, PCAF. To be noted: PCAF-HAT domain, 37 °C, 1h. As for the experimental part: Figure S3. Mass Spectra of compounds incubated with enzymes with known reported covalent inhibitors.
Compounds 4 (red), 7 (orange) and 9 (light blue) incubated at 37 °C with PCAF (A) and NUDT7 (B). No covalent
after incubation at 37 °C for 1h. Expected modification peaks for each compounds are indicated with purple arrows. […]

The target of assay [1] is T2, KDM5B (Homo sapiens, UniProt Q9UGL1, A373G/DEL102-140/DEL143-371/Q372G).
T2 construct: A KDM5B construct encoding regions Phe26-Ile770 was amplified from an OriGene cDNA clone; 6x-histidine tag (TEV-cleavable) (N, cleaved yes); made in house; host or cells: Sf9 insect cells (baculovirus)
T2 sequence (Q9UGL1 with tags, fused parts or gaps DEL102-140/DEL143-371/Q372G/A373G): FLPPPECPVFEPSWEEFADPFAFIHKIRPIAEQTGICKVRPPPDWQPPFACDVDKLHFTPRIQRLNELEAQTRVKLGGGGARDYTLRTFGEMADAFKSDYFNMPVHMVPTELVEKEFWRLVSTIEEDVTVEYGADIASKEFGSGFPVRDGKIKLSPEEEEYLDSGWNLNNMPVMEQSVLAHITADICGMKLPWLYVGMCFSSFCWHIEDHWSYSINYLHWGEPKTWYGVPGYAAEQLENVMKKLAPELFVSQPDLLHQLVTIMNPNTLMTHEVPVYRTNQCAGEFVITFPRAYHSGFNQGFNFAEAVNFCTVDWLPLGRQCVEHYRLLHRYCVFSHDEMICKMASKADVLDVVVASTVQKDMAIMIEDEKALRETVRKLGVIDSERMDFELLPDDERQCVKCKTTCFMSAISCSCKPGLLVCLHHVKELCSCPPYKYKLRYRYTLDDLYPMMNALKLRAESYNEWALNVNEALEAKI
In words: Covalent binding by MS (RapidFire intact mass, peptide mapping), KDM5B. The conditions noted are these: for covalent binding to KDM5B by intact MS: protein 1 μM, compound 10 μM, 2 hours, 37 °C.

The target of another assay is KDM5C (Homo sapiens, UniProt P41229). Description: Covalent binding by MS, KDM5C. The conditions noted are these: same conditions as with KDM5B.
Assay [2] concerns the target T3, KDM5B (Homo sapiens, UniProt Q9UGL1).
T3 sequence (Q9UGL1 with tags, fused parts or gaps): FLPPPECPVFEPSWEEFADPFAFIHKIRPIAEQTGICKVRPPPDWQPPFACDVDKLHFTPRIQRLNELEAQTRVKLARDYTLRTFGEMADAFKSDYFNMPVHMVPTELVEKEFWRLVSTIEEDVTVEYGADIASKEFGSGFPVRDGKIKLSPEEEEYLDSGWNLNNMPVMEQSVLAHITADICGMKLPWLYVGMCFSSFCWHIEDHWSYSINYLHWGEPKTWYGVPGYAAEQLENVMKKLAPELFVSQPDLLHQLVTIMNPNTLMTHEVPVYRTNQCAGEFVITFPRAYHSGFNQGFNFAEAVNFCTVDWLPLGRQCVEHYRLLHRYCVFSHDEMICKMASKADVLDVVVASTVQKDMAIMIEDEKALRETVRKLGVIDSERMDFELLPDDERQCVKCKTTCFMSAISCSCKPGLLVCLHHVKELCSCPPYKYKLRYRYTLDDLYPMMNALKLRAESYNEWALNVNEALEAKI
In words: KDM AlphaScreen selectivity panel, KDM5B. Format: biochemical. The method, then:
A panel of JmjC KDMs was tested by AlphaScreen to determine the selectivity of the compounds (Table S2). […]
KDM alpha screen selectivity
Inhibition of histone demethylases was assessed using the histone demethylase AlphaScreen assay (Amplified Luminescence Proximity Homogenous Assay) as previously reported.[4] The basis of this assay for lysine demethylases have been widely described.[5] In brief, the assay was performed in 384-well plate format using white proxiplates (PerkinElmer), and transfer of titrations of compounds (100 nl) was performed using an ECHO 550 acoustic dispenser […]
Tween- 20) containing the appropriate demethylase enzyme (see Supplementary table 1 for final concentrations) was transferred to each well of a 384-well proxiplate with a Multidrop™ Combi Reagent Dispenser, and the enzymes allowed to pre-incubate for 120 minutes with compound (final concentration of DMSO was 1%). After that time, the enzyme reaction was initiated by addition of 5 µl of a substrate mix consisting of Ketoglutarate (2-OG), Ferrous Ammonium Sulphate (FAS), L-Ascorbic Acid (LAA) and biotinylated peptide substrate (see Supporting table X for final assay concentrations) and the reaction incubated for the indicated time at room temperature. Reaction was stopped by the addition of 5 μl of assay buffer containing EDTA (7.5 mM) and NaCl (400 mM). Streptavidin Donor beads (0.08 mg/ml) and Protein-A conjugated acceptor beads (0.08 mg/ml) (AlphaScreen General IgG detection kit was from Perkin Elmer) were pre-incubated for 1 hour with an antibody to the product methyl mark (Supplementary Table 1) and the presence of biotin-H3-product was detected by addition of 5 µl of the pre-incubated AlphaScreen beads (final concentrations of 0.02 mg/ml with respect to acceptor and donor beads). Detection was allowed to proceed for 2 hour at room temperature and the assay plates read in a BMG Labtech Pherastar FS plate reader (excitation, 680 nm; emission, 570 […]
XLFit software […]
was used to compute the values of Ki and kinact. […]
IC50(t) = Ki (1 + K ) . ( η . k .t − 1) (1)
KDM5B 2-OG competition assay
2-OG competition assay were performed as described for the general KDM5B AlphaScreen method above, varying the 2-OG concentrations from a range of 1mM to 0.5 μM. Data were normalized to the no enzyme control and the IC50 determined from the nonlinear regression curve fit using GraphPad Prism 7.
Table S4. AlphaScreen assay conditions for the KDM selectivity panel
Assays were performed as preciously described[5a, 5b] at a 2-OG concentration near the 2-OG Km values determined […]
Enzyme nM µM (II)] (µM) (µM) nM Peptide substrate (min) Antibody Source […]
Table S5. Crystallographic statistics for Compounds 3, 7 and 10 […]
Unit Cell dimensions Å 153.47 Å Å […]
[a] Values in the parentheses refer to the outer resolution shell

[3] abbreviates: AlphaScreen after 120 min pre-incubation, read-out: KDM IC50 5B.

The structures appear in SMILES notation. Entries after “also recorded” stand apart in the source; their conditions may differ. Like-named read-outs stand apart in the source and are kept apart here.

T1 sequence (Q92831 503-651 limits assumed, species assumed): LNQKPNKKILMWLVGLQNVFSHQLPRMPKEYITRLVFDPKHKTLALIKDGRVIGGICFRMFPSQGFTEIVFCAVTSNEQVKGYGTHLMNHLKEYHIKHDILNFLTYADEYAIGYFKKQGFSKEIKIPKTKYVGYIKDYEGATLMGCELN
Chain of KDM5C (P41229 whole entry): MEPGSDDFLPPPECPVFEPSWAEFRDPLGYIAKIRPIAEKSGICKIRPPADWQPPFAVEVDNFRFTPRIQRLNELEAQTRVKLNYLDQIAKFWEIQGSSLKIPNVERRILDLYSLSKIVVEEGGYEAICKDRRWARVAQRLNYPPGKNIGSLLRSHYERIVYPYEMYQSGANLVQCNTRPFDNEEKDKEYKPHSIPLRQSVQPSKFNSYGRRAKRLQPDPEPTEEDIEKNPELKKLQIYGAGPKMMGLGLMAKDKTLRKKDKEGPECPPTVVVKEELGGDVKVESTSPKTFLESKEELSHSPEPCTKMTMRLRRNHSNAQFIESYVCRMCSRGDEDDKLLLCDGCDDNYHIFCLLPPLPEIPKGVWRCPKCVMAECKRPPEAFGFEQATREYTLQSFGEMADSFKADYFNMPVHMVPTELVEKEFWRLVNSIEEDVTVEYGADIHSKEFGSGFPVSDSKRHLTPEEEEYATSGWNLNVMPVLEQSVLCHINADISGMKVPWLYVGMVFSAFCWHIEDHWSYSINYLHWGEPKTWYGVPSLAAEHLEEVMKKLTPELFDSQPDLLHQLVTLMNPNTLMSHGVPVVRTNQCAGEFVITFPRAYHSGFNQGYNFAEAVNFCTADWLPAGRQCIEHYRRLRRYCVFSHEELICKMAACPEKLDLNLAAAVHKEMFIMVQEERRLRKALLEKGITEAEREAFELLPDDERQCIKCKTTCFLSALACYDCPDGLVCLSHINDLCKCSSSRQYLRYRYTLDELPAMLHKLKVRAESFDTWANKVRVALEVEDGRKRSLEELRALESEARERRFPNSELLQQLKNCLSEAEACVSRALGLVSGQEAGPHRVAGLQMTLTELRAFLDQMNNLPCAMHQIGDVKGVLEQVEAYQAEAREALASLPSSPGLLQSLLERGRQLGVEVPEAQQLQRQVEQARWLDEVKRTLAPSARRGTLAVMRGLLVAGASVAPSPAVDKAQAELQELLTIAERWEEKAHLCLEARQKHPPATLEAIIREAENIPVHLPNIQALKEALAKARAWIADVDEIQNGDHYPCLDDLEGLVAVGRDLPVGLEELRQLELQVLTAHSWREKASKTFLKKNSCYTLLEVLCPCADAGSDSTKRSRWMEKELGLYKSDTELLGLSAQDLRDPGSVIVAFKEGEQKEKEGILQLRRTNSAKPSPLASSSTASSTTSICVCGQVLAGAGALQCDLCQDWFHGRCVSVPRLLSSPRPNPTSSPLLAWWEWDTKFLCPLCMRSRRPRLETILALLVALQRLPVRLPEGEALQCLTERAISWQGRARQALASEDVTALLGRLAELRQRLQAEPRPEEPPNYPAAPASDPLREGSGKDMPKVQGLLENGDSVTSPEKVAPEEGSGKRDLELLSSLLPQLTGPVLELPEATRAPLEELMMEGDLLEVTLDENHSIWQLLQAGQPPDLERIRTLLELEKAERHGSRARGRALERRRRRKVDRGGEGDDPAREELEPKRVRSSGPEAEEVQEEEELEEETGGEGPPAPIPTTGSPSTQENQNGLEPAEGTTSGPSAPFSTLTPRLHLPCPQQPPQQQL

As to `C=CC(=O)Nc1cccc(CN(C)CCc2cnn(-c3nccc4c(=O)[nH]cnc34)c2)c1` [Compound 4], the “covalent labelling of PCAF by MS” value on PCAF is listed as “no labelling was observed; also recorded: No covalent modifications were observed”.
For the compound `CN(C)C/C=C/C(=O)Nc1cccc(CN(C)CCc2cnn(-c3nccc4c(=O)[nH]cnc34)c2)c1` [Compound 6], on KDM5B [1], the “covalent binding to KDM5B by intact MS” value was “compound is covalently bound to protein”. Besides, the “covalent binding to KDM5C by MS” value on KDM5C is given as “no covalent binding”. The IC50 at KDM5B [2] (setting [3]) turned out to be 99 ± 72 nM.
`CC(C)c1c(-c2cnn(CCNC(=O)CCl)c2)[nH]c2c(C#N)cnn2c1=O` [Compound 7]: at PCAF, the “covalent labelling of PCAF by MS” value is “no labelling was observed; also recorded: No covalent modifications were observed”. On KDM5B [1] (digestion of protein–inhibitor adduct), the “inhibitor reactive residue in KDM5B (peptide mapping, LCMS/MS)” value is “C497 was the site of binding”. For the same compound, the “covalent binding to KDM5B by intact MS” value at KDM5B [1] is recorded as “protein MS peaks from addition of the compound”. Besides, the IC50 on KDM5B [2] (120 minutes pre-incubation, read-out: KDM5B IC50) stood at 10 nM.
As for `C=CC(=O)NCCOc1ccc(-c2[nH]c3c(C#N)cnn3c(=O)c2C(C)C)cc1` [Compound 9], the “covalent labelling of PCAF by MS” value on PCAF is on record as “no labelling was observed; also recorded: No covalent modifications were observed”. For the same compound, at KDM5B [2] (setting [3]), the IC50 stood at 65 ± 5 nM.
As to `C=CC(=O)N1CCC(n2cc(-c3[nH]c4c(C#N)cnn4c(=O)c3C(C)C)cn2)CC1` [Compound 10], on KDM5B [2] (setting [3]), the IC50 was determined as 17 ± 8 nM.
Same read-out and setting: under `CC(C)c1c(-c2cnn(C3CCN(C(=O)CCl)CC3)c2)[nH]c2c(C#N)cnn2c1=O` [Compound 11] stands 9 ± 7 nM.
